Reference: patent US20250179059A1 (The Regents of the University of California, priority 2021, published 2025)

target: T1, human BRD4 bromodomain II (Homo sapiens, UniProt O60885); assay: Bromodomain binding assay (AlphaScreen), BRD4 BDII; details: AlphaScreen assay, Table C2; read-out: BRD4 BDII IC50
T1 construct: human BRD4 bromodomain II [based on Genbank NM_058243, residues 349-460]; host or cells: E. coli
Procedure, shortened: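 AlphaScreen competition with biotinylated H4 peptide (aa 1-21, K5/K8/K12/K16Ac), using nickel-chelate acceptor and streptavidin donor beads. Targets were His6-BRD4 BDI (44-170) or BDII (349-460), with a 30 min compound preincubation over a 10-point 3-fold series. IC50 was fitted from percentage peptide binding.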

IC50, > 0.1 µM:
CC(=O)Nc1ccc(-c2cccc(-c3cccc(OC(C)C)c3)c2O)cc1F [Example 107, N-(3-Fluoro-2′-hydroxy-3″-isopropoxy-[1,1′:3′,1″-terphenyl]-4-yl)acetamide]
CC(=O)Nc1ccc(-c2cccc(-c3ccc4c(c3)CCN4C(C)=O)c2O)cc1F [Example 47, N-(3′-(1-Acetylindolin-5-yl)-3-fluoro-2′-hydroxy-[1,1′-biphenyl]-4-yl)acetamide]
O=C(Nc1ccc(-c2cccc(-c3cc(N4CCNCC4)no3)c2O)cc1)C(F)F [Example 48, 2,2-Difluoro-N-(2′-hydroxy-3′-(3-(piperazin-1-yl)isoxazol-5-yl)-[1,1′-biphenyl]-4-yl)acetamide 2,2,2-trifluoroacetate]
CC(=O)Nc1ccc(-c2cc(F)cc(-c3cnn(C4CCN(C)CC4)c3)c2O)cc1F [Example 84, N-(3,5′-Difluoro-2′-hydroxy-3′-(1-(1-methylpiperidin-4-yl)-1H-pyrazol-4-yl)-[1,1′-biphenyl]-4-yl)acetamide]
CC(=O)Nc1ccc(-c2cccc(-c3cc(N4CCN(C(=O)c5ccccc5)CC4)no3)c2O)cc1 [Example 105, N-(3′-(3-(4-Benzoylpiperazin-1-yl)isoxazol-5-yl)-2′-hydroxy-[1,1′-biphenyl]-4-yl)acetamide]
CC(=O)Nc1ccc(-c2cccc(-c3ccc4c(c3)ncn4C)c2O)cc1F [Example 121, N-(3-Fluoro-2′-hydroxy-3′-(1-methyl-1H-benzo[d]imidazol-5-yl)-[1,1′-biphenyl]-4-yl)acetamide]
CC(=O)Nc1ccc(-c2cccc(-c3cc4ccccc4[nH]3)c2O)cc1F [Example 156, N-(3-fluoro-2′-hydroxy-3′-(1H-indol-2-yl)-[1,1′-biphenyl]-4-yl)acetamide]
CC(=O)Nc1ccc(-c2cccc(-c3cc(C)c(NC(C)=O)c(F)c3)c2O)cc1F [Example 139, N,N′-(3,3″-difluoro-2′-hydroxy-5-methyl-[1,1′:3′,1″-terphenyl]-4,4″-diyl)diacetamide]
CC(=O)Nc1ccc(-c2cccc(-c3ccc(NC(C)=O)c(F)c3)c2O)cc1F [Example 33, N,N′-(3,3″-Difluoro-2′-hydroxy-[1,1′:3′,1″-terphenyl]-4,4″-diyl)diacetamide]
CC(=O)Nc1ccc(-c2cccc(-c3cccc(N4CCNCC4=O)c3)c2O)cc1F [Example 191, N-(3-fluoro-2′-hydroxy-3″-(2-oxopiperazin-1-yl)-[1,1′:3′,1″-terphenyl]-4-yl)acetamide]
CC(=O)Nc1ccc(-c2cccc(-c3cccc(-c4ccc(N)nc4)c3)c2O)cc1F [Example 202, N-(3″-(6-aminopyridin-3-yl)-3-fluoro-2′-hydroxy-[1,1′:3′,1″-terphenyl]-4-yl)acetamide]
O=C1CCCN1c1ccc(-c2cccc(-c3ccccc3)c2O)cc1F [Example 188, 1-(3-fluoro-2′-hydroxy-[1,1′:3′,1″-terphenyl]-4-yl)pyrrolidin-2-one]
CCOc1ccc(-c2cccc(-c3ccc(NC(C)=O)c(F)c3)c2O)cc1 [Example 71, N-(4″-ethoxy-3-fluoro-2′-hydroxy-[1,1′:3′,1″-terphenyl]-4-yl)acetamide]
CC(=O)Nc1ccc(-c2cccc(-c3cccc(Cl)c3)c2O)cc1F [Example 77, N-(3″-Chloro-3-fluoro-2′-hydroxy-[1,1′:3′,1″-terphenyl]-4-yl)acetamide]
CC(=O)Nc1ccc(-c2cccc(-c3cnn(-c4ccccc4)c3)c2O)cc1F [Example 35, N-(3-Fluoro-2′-hydroxy-3′-(1-phenyl-1H-pyrazol-4-yl)-[1,1′-biphenyl]-4-yl) acetamide]
CC(=O)Nc1ccc(-c2cccc(-c3ccc4ocnc4c3)c2O)cc1F [Example 122, N-(3′-(Benzo[d]oxazol-5-yl)-3-fluoro-2′-hydroxy-[1,1′-biphenyl]-4-yl)acetamide]
CC(=O)Nc1ccc(-c2cccc(-c3cc(N4CCN(S(C)(=O)=O)CC4)no3)c2O)cc1 [Example 143, N-(2′-hydroxy-3′-(3-(4-(methylsulfonyl)piperazin-1-yl)isoxazol-5-yl)-[1,1′-biphenyl]-4-yl)acetamide]
CC(=O)Nc1ccc(-c2cccc(-c3cc(N4CCNCC4)ccn3)c2O)cc1F [Example 233, N-(3-fluoro-2′-hydroxy-3′-(4-(piperazin-1-yl)pyridin-2-yl)-[1,1′-biphenyl]-4-yl)acetamide]
O=C(Nc1ccc(-c2cccc(-c3cc(N4CCNCC4)no3)c2O)cc1)C(F)(F)F [Example 39, 2,2,2-Trifluoro-N-(2′-hydroxy-3′-(3-(piperazin-1-yl)isoxazol-5-yl)-[1,1′-biphenyl]-4-yl)acetamide 2,2,2-trifluoroacetate]
CC(=O)N1CCC(=O)Nc2cc(-c3cccc(-c4cc(N5CCNCC5)no4)c3O)ccc21 [Example 29, 5-Acetyl-8-(2-hydroxy-3-(3-(piperazin-1-yl)isoxazol-5-yl)phenyl)-4,5-dihydro-1H-benzo[b][1,4]diazepin-2(3H)-one 2,2,2-trifluoroacetate]

IC50, 0.01 to 0.1 µM:
COc1cc(-c2cccc(-c3cc(Cl)c(NC(C)=O)c(Cl)c3)c2O)ccc1NC(C)=O [Example 132, N,N′-(3,5-Dichloro-2′-hydroxy-3″-methoxy-[1,1′:3′,1″-terphenyl]-4,4″-diyl)diacetamide]
O=C1CCCCN1c1ccc(-c2cccc(-c3cccc(N4CCNCC4)c3)c2O)cc1F [Example 223, 1-(3-fluoro-2′-hydroxy-3″-(piperazin-1-yl)-[1,1′:3′,1″-terphenyl]-4-yl)piperidin-2-one]
CC(=O)Nc1ccc(-c2cccc(-c3cccc(N4CC5CC4CN5)c3)c2O)cc1F (centres unmarked) [Example 170, N-(3″-(2,5-diazabicyclo[2.2.1]heptan-2-yl)-3-fluoro-2′-hydroxy-[1,1:3′,1″-terphenyl]-4-yl)acetamide]
COc1cc(-c2cccc(-c3ccc(N4CCCC4=O)c(F)c3)c2O)ccc1NC(C)=O [Example 129, N-(3″-Fluoro-2′-hydroxy-3-methoxy-4″-(2-oxopyrrolidin-1-yl)-[1,1′:3′,1″-terphenyl]-4-yl)acetamide]
CC(=O)Nc1ccc(-c2cccc(-c3ccc4ncccc4c3)c2O)cc1F [Example 120, N-(3-Fluoro-2′-hydroxy-3′-(quinolin-6-yl)-[1,1′-biphenyl]-4-yl)acetamide]
COc1cc(-c2cccc(-c3ccc(NC(C)=O)cc3)c2O)ccc1NC(C)=O [Example 127, N,N′-(2′-Hydroxy-3-methoxy-[1,1′:3′,1″-terphenyl]-4,4″-diyl)diacetamide]
CC(=O)Nc1c(Cl)cc(-c2cccc(-c3cc(N4CCNCC4)no3)c2O)cc1Cl [Example 154, N-(3,5-dichloro-2′-hydroxy-3′-(3-(piperazin-1-yl)isoxazol-5-yl)-[1,1′-biphenyl]-4-yl)acetamide]
O=C1CCCN1c1ccc(-c2cccc(-c3cc(N4CCNCC4)no3)c2O)cc1F [Example 113, 1-(3-Fluoro-2′-hydroxy-3′-(3-(piperazin-1-yl)isoxazol-5-yl)-[1,1′-biphenyl]-4-yl)pyrrolidin-2-one]
CC(=O)Nc1ccc(-c2cccc(-c3cccc(N4C[C@H]5CC[C@@H](C4)N5)c3)c2O)cc1F [Example 176, N-(3″-((1R,5S)-3,8-diazabicyclo[3.2.1]octan-3-yl)-3-fluoro-2′-hydroxy-[1,1′:3′,1″-terphenyl]-4-yl)acetamide]
CCOc1cc(-c2cccc(-c3ccc(NC(C)=O)c(F)c3)c2O)ccc1NC(C)=O [Example 52, N,N′-(3-Ethoxy-3″-fluoro-2′-hydroxy-[1,1′:3′,1″-terphenyl]-4,4″-diyl)diacetamide]
CC(=O)Nc1ccc(-c2cccc(-c3cncnc3)c2O)cc1F [Example 103, N-(3-Fluoro-2′-hydroxy-3′-(pyrimidin-5-yl)-[1,1′-biphenyl]-4-yl)acetamide]
CC(=O)Nc1ccc(-c2cccc(-c3cnc(N4CCNCC4)o3)c2O)cc1F [Example 112, N-(3-Fluoro-2′-hydroxy-3′-(2-(piperazin-1-yl)oxazol-5-yl)-[1,1′-biphenyl]-4-yl)acetamide]

IC50, 0.001 to 0.01 µM:
CC(=O)Nc1ccc(-c2cccc(-c3cc(N4CCNCC4)nc(N4CCNCC4)c3)c2O)cc1F [Example 218, N-(3′-(2,6-di(piperazin-1-yl)pyridin-4-yl)-3-fluoro-2′-hydroxy-[1,1′-biphenyl]-4-yl)acetamide]
CC(=O)Nc1ccc(-c2cccc(-c3ccc(Cl)c(N4CCNCC4)c3)c2O)cc1F [Example 241, N-(4″-chloro-3-fluoro-2′-hydroxy-3″-(piperazin-1-yl)-[1,1′:3′,1″-terphenyl]-4-yl)acetamide]
CC(=O)Nc1c(F)cc(-c2cccc(-c3cccc(N4CCNCC4)c3)c2O)cc1OC1CCC1 [Example 167, N-(3-cyclobutoxy-5-fluoro-2′-hydroxy-3″-(piperazin-1-yl)-[1,1′:3′,1″-terphenyl]-4-yl)acetamide]
O=C1NCCN1c1ccc(-c2cccc(-c3cccc(N4CCNCC4)c3)c2O)cc1F [Example 197, 1-(3-fluoro-2′-hydroxy-3″-(piperazin-1-yl)-[1,1′:3′,1″-terphenyl]-4-yl)imidazolidin-2-one]
CC(=O)Nc1ccc(-c2cc(F)cc(-c3ccc(Cl)c(N4CCNCC4)c3)c2O)cc1F [Example 242, N-(4″-chloro-3,5′-difluoro-2′-hydroxy-3″-(piperazin-1-yl)-[1,1″-terphenyl]-4-yl)acetamide]
CC(=O)Nc1c(F)cc(-c2cccc(-c3cc(N4CCNCC4)no3)c2O)cc1OC1CCC1 [Example 100, N-(3-Cyclobutoxy-5-fluoro-2′-hydroxy-3′-(3-(piperazin-1-yl)isoxazol-5-yl)-[1,1′-biphenyl]-4-yl)acetamide]
